# Assay results as given in ChEMBL document CHEMBL1671673, “In vitro activity of colistin (polymyxin E) against 3,480 isolates of gram-negative bacilli obtained from patients in Canadian hospitals in the CANWARD study, 2007-2008” (Antimicrob Agents Chemother, 2009).
# Key:
# Type in all cases: functional, organism-based
# Set-up in all cases: scale not given: the % may be the effect or the level left
# Klebsiella pneumoniae [1] = assay: Antibacterial activity against ESBL-producing Klebsiella pneumoniae assessed as susceptible isolates at minimum inhibitory concentration of 0.25 ug/ml by CLSI broth microdilution method
# Pseudomonas aeruginosa [2] = assay: Antibacterial activity against Piperacillin-resistant Pseudomonas aeruginosa assessed as susceptible isolates at minimum inhibitory concentration of 0.5 ug/ml by CLSI broth microdilution method
# Pseudomonas aeruginosa [3] = assay: Antibacterial activity against Cefepime-resistant Pseudomonas aeruginosa assessed as susceptible isolates at minimum inhibitory concentration of 2 ug/ml by CLSI broth microdilution method
# Acinetobacter baumannii [4] = assay: Antibacterial activity against Acinetobacter baumannii assessed as susceptible isolates at minimum inhibitory concentration of 16 ug/ml by CLSI broth microdilution method
# Acinetobacter baumannii [5] = assay: Antibacterial activity against Acinetobacter baumannii assessed as susceptible isolates at minimum inhibitory concentration of <=0.06 ug/ml by CLSI broth microdilution method
# Acinetobacter baumannii [6] = assay: Antibacterial activity against Acinetobacter baumannii assessed as susceptible isolates at minimum inhibitory concentration of 0.12 ug/ml by CLSI broth microdilution method
# Pseudomonas aeruginosa [7] = assay: Antibacterial activity against Meropenem-resistant Pseudomonas aeruginosa assessed as susceptible isolates at minimum inhibitory concentration of 2 ug/ml by CLSI broth microdilution method
# Enterobacter cloacae [8] = assay: Antibacterial activity against Enterobacter cloacae assessed as susceptible isolates at minimum inhibitory concentration of 16 ug/ml by CLSI broth microdilution method
# Escherichia coli [9] = assay: Antibacterial activity against ESBL-producing Escherichia coli assessed as susceptible isolates at minimum inhibitory concentration of 16 ug/ml by CLSI broth microdilution method
# Escherichia coli [10] = assay: Antibacterial activity against ESBL-producing Escherichia coli assessed as susceptible isolates at minimum inhibitory concentration of 4 ug/ml by CLSI broth microdilution method
# Pseudomonas aeruginosa [11] = assay: Antibacterial activity against Pseudomonas aeruginosa assessed as susceptible isolates at minimum inhibitory concentration of <=2 ug/ml by CLSI broth microdilution method
# Pseudomonas aeruginosa [12] = assay: Antibacterial activity against Levofloxacin-resistant Pseudomonas aeruginosa assessed as susceptible isolates at minimum inhibitory concentration of 8 ug/ml by CLSI broth microdilution method
# Pseudomonas aeruginosa [13] = assay: Antibacterial activity against Gentamicin-resistant Pseudomonas aeruginosa assessed as susceptible isolates at minimum inhibitory concentration of 1 ug/ml by CLSI broth microdilution method
# Pseudomonas aeruginosa [14] = assay: Antibacterial activity against Pseudomonas aeruginosa assessed as susceptible isolates at minimum inhibitory concentration of 1 ug/ml by CLSI broth microdilution method
# Pseudomonas aeruginosa [15] = assay: Antibacterial activity against MDR3 Pseudomonas aeruginosa assessed as susceptible isolates at minimum inhibitory concentration of 2 ug/ml by CLSI broth microdilution method
# Pseudomonas aeruginosa [16] = assay: Antibacterial activity against Ciprofloxacin-resistant Pseudomonas aeruginosa assessed as susceptible isolates at minimum inhibitory concentration of 0.5 ug/ml by CLSI broth microdilution method
# Serratia marcescens [17] = assay: Antibacterial activity against Serratia marcescens assessed as susceptible isolates at minimum inhibitory concentration of 0.12 ug/ml by CLSI broth microdilution method
# Pseudomonas aeruginosa [18] = assay: Antibacterial activity against Pseudomonas aeruginosa assessed as susceptible isolates at minimum inhibitory concentration of 0.5 ug/ml by CLSI broth microdilution method
# Klebsiella aerogenes = assay: Antibacterial activity against Enterobacter aerogenes assessed as susceptible isolates at minimum inhibitory concentration of 0.12 ug/ml by CLSI broth microdilution method
# Klebsiella pneumoniae [19] = assay: Antibacterial activity against ESBL-producing Klebsiella pneumoniae assessed as susceptible isolates at minimum inhibitory concentration of 8 ug/ml by CLSI broth microdilution method
# Serratia marcescens [20] = assay: Antibacterial activity against Serratia marcescens assessed as susceptible isolates at minimum inhibitory concentration of >16 ug/ml by CLSI broth microdilution method
# Pseudomonas aeruginosa [21] = assay: Antibacterial activity against Levofloxacin-resistant Pseudomonas aeruginosa assessed as susceptible isolates at minimum inhibitory concentration of >16 ug/ml by CLSI broth microdilution method
# Enterobacter cloacae [22] = assay: Antibacterial activity against Enterobacter cloacae assessed as susceptible isolates at minimum inhibitory concentration of 2 ug/ml by CLSI broth microdilution method
# Pseudomonas aeruginosa [23] = assay: Antibacterial activity against Gentamicin-resistant Pseudomonas aeruginosa assessed as susceptible isolates at minimum inhibitory concentration of 0.5 ug/ml by CLSI broth microdilution method
# Pseudomonas aeruginosa [24] = assay: Antibacterial activity against Amikacin-resistant Pseudomonas aeruginosa assessed as susceptible isolates at minimum inhibitory concentration of 4 ug/ml by CLSI broth microdilution method
# Pseudomonas aeruginosa [25] = assay: Antibacterial activity against Pseudomonas aeruginosa assessed as susceptible isolates at minimum inhibitory concentration of >16 ug/ml by CLSI broth microdilution method
# Pseudomonas aeruginosa [26] = assay: Antibacterial activity against Amikacin-resistant Pseudomonas aeruginosa assessed as susceptible isolates at minimum inhibitory concentration of 2 ug/ml by CLSI broth microdilution method
# Klebsiella oxytoca [27] = assay: Antibacterial activity against Klebsiella oxytoca assessed as susceptible isolates at minimum inhibitory concentration of >16 ug/ml by CLSI broth microdilution method
# Enterobacter cloacae [28] = assay: Antibacterial activity against Enterobacter cloacae assessed as susceptible isolates at minimum inhibitory concentration of 0.12 ug/ml by CLSI broth microdilution method
# Pseudomonas aeruginosa [29] = assay: Antibacterial activity against Gentamicin-resistant Pseudomonas aeruginosa assessed as susceptible isolates at minimum inhibitory concentration of 2 ug/ml by CLSI broth microdilution method
# Pseudomonas aeruginosa [30] = assay: Antibacterial activity against Cefepime-resistant Pseudomonas aeruginosa assessed as susceptible isolates at minimum inhibitory concentration of 4 ug/ml by CLSI broth microdilution method
# Pseudomonas aeruginosa [31] = assay: Antibacterial activity against tazobactam-resistant Pseudomonas aeruginosa assessed as susceptible isolates at minimum inhibitory concentration of 1 ug/ml by CLSI broth microdilution method
# Proteus mirabilis = assay: Antibacterial activity against Proteus mirabilis assessed as susceptible isolates at minimum inhibitory concentration of 16 ug/ml by CLSI broth microdilution method
# Escherichia coli [32] = assay: Antibacterial activity against ESBL-producing Escherichia coli assessed as susceptible isolates at minimum inhibitory concentration of 0.12 ug/ml by CLSI broth microdilution method
# Pseudomonas aeruginosa [33] = assay: Antibacterial activity against tazobactam-resistant Pseudomonas aeruginosa assessed as susceptible isolates at minimum inhibitory concentration of 4 ug/ml by CLSI broth microdilution method
# Pseudomonas aeruginosa [34] = assay: Antibacterial activity against MDR3 Pseudomonas aeruginosa assessed as susceptible isolates at minimum inhibitory concentration of 1 ug/ml by CLSI broth microdilution method
# Serratia marcescens [35] = assay: Antibacterial activity against Serratia marcescens assessed as susceptible isolates at minimum inhibitory concentration of <=0.06 ug/ml by CLSI broth microdilution method
# Klebsiella oxytoca [36] = assay: Antibacterial activity against Klebsiella oxytoca assessed as susceptible isolates at minimum inhibitory concentration of 1 ug/ml by CLSI broth microdilution method
# Pseudomonas aeruginosa [37] = assay: Antibacterial activity against MDR Pseudomonas aeruginosa assessed as susceptible isolates at minimum inhibitory concentration of 1 ug/ml by CLSI broth microdilution method
# Pseudomonas aeruginosa [38] = assay: Antibacterial activity against Levofloxacin-resistant Pseudomonas aeruginosa assessed as susceptible isolates at minimum inhibitory concentration of 4 ug/ml by CLSI broth microdilution method
sequence,measurement,setting,value
COLISTIN,Activity,Klebsiella pneumoniae [1],10.5%
same,Activity,Pseudomonas aeruginosa [2],1.8%
same,Activity,Pseudomonas aeruginosa [3],97.3%
same,Activity,Acinetobacter baumannii [4],96.8%
same,Activity,Acinetobacter baumannii [5],0%
same,Activity,Acinetobacter baumannii [6],0%
same,Activity,Pseudomonas aeruginosa [7],98.2%
same,Activity,Enterobacter cloacae [8],88.2%
same,Activity,Escherichia coli [9],99.7%
same,Activity,Escherichia coli [10],99.5%
same,Activity,Pseudomonas aeruginosa [11],91.6%
same,Activity,Pseudomonas aeruginosa [12],98.2%
same,Activity,Pseudomonas aeruginosa [13],35.6%
same,Activity,Pseudomonas aeruginosa [14],29.1%
same,Activity,Pseudomonas aeruginosa [15],100%
same,Activity,Pseudomonas aeruginosa [16],4.1%
same,Activity,Serratia marcescens [17],0%
same,Activity,Pseudomonas aeruginosa [18],2.5%
same,Activity,Klebsiella aerogenes,0%
same,Activity,Klebsiella pneumoniae [19],97.9%
same,Activity,Serratia marcescens [20],100%
same,Activity,Pseudomonas aeruginosa [21],100%
same,Activity,Enterobacter cloacae [22],83.9%
same,Activity,Pseudomonas aeruginosa [23],3.8%
same,Activity,Pseudomonas aeruginosa [24],97.4%
same,Activity,Pseudomonas aeruginosa [25],100%
same,Activity,Pseudomonas aeruginosa [26],97.4%
same,Activity,Klebsiella oxytoca [27],100%
same,Activity,Enterobacter cloacae [28],1.6%
same,Activity,Pseudomonas aeruginosa [29],99%
same,Activity,Pseudomonas aeruginosa [30],100%
same,Activity,Pseudomonas aeruginosa [31],37.5%
same,Activity,Proteus mirabilis,0.8%
same,Activity,Escherichia coli [32],1.2%
same,Activity,Pseudomonas aeruginosa [33],100%
same,Activity,Pseudomonas aeruginosa [34],36%
same,Activity,Serratia marcescens [35],0%
same,Activity,Klebsiella oxytoca [36],91.7%
same,Activity,Pseudomonas aeruginosa [37],38.2%
same,Activity,Pseudomonas aeruginosa [38],98.2%
